{
  "source": "patent US20250057790A1",
  "about": "“AN INJECTABLE PHARMACEUTICAL COMPOSITION FOR THE TREATMENT OF RESPIRATORY DISEASES IN ANIMALS” (priority 2021, published 2025)",
  "key": {"[1]": {"tested_on": "M. haemolytica", "assay": "MIC determination, broth-microdilution (CLSI VET01-A4), field isolates", "assay_type": "cell-based, Mannheimia haemolytica", "experimental": "This study determined the in vitro activity Compound (A), the enantiomer of the compound of Formula (I), against different isolates of Actinobacillus (A.) pleuropneumoniae, Bordetella (B.) bronchiseptica, Mannheimia (M.) haemolytica, Pasteurella (P.) multocida, Histophilus (H.) somni and Glaesserella parasuis collected in different European countries.\nThe in vitro activity was determined by measuring the minimum inhibitory concentrations (MIC) according to CLSI document VET01-A4 [1] and by calculating MIC50 and MIC90.\nA total of 193 field isolates were tested: 31 of A. pleuropneumoniae, 20 of B. bronchiseptica, 20 of H. somni, 20 H. parasuis, 55 of M. haemolytica and 47 of P. multocida. All bacteria were isolated from the respiratory tract of cattle and swine suffering from respiratory disease. All isolates were epidemiologically unrelated as specified by the different suppliers. E. coli ATCC 25922 (ID 6105) and M. haemolytica ATCC 33396 (ID 6374) were used as reference strains for testing isolates of B. bronchiseptica, M. haemolytica and P. multocida. A. pleuropneumoniae ATCC 27090 (ID 6314) and H. somni ATCC 700025 (ID 6315) were used as reference strains for the testing isolates of A. pleuropneumoniae, H. somni and Glaesserella parasuis. Additionally, H. parasuis (G. parasuis) ATCC 19417 was included as type strain for growth control.\n• Mueller-Hinton agar (Becton Dickinson, Lot 9224866) • Cation-adjusted Mueller-Hinton broth, (CAVHB, Becton Dickinson, Lot 8190586) • Sheep blood, defibrinated (Thermo Scientific, Lot 37091500) • Chocolate agar, GC II with IsoVitalex™ (Becton Dickinson, Lot 0147695) • GC-agar base (Becton Dickinson, Lot 6082608) • Hemoglobin solution (Becton Dickinson, Lot 7142854) • Vitox (Oxoid, Lot 2344976) • Veterinary fastidious Medium (VFM), prepared according to CLSI document VET01-A4 [1], containing: • CAMHB (Becton Dickinson, Lot 8190586) • Yeast extract (Sigma, Lot BCBS5470V) • Lysed horse blood (Thermo Scientific, Lot 35875000) • Supplement C™ (Becton Dickinson, Lot 8030960) • Deionized water\nThe MICs for all isolates except for H. somni and Glaesserella parasuis isolates, were determined by using the broth-microdilution method according to CLSI document VET01-A4 [1]. For isolates of H. somni and Glaesserella parasuis the agar-dilution method with chocolate agar GC II, was used. The test concentration range for all compounds was 16 μg/mL to 0.016 μg/mL.\nThe MIC results were interpreted according to the CLSI document VET01-S3 [2]. […] All wells containing test item were compared with the growth-control wells. The lowest concentration of compound at which no visible growth (i.e. no turbidity) was detected by the unaided eye was recorded as the MIC. If a “trailing endpoint” occurs, the MIC is defined as the first concentration at which a markedly reduction (about 90%) of the inoculum is observed.\nFor isolates tested by the agar-dilution method, results were interpreted according to the CLSI document VET01-S3 [2]. […] The MIC50 and MIC90 represent the concentrations at which a minimum of 50% or 90% of the isolates tested are inhibited."}, "[2]": {"assay": "Lung tissue study in cattle", "assay_type": "in vivo", "conditions": "after slaughter", "experimental": "The same animals and compositions of Compound A that were used in Example 5 were also used for the Lung tissue study. The lung was freed from the trachea and appending tissues. One half of the lung was homogenized using a food processor (Robot Coupe). Two aliquots of approximately 1 g were placed into 15 mL Falcon tubes. From the liver, kidney and a skeletal muscle (long back muscle) scissor snips from at least two locations were collected to a total mass of ca. 1 g each and placed into 15 mL Falcon tubes. Tissue samples were diluted with blank EDTA cattle plasma 1+3 (w/v) and samples were homogenized using a FastPrep™ System. After centrifugation aliquots of the supernatants were used to determine compound concentrations by a HPLC-MS/MS procedure."}, "[3]": {"conditions": "Mannheimia haemolytica, 55 isolates, broth microdilution"}},
  "data": [
    {"smiles": "COCCNCc1ccc(C#Cc2ccc(C(=O)N[C@H](C(=O)NO)C(C)(C)N)cc2)cc1", "note": "[Compound A]", "values": [
      {"measurement": "MIC50", "setting": "[1]; [3]", "value": 0.5, "unit": "µg/mL"},
      {"measurement": "MIC90", "setting": "[1]; [3]", "value": 0.5, "unit": "µg/mL"},
      {"measurement": "Distribution of MICs: number of isolates with MIC 0.063 μg/mL", "setting": "[1]; of 55 isolates tested", "value": 2},
      {"measurement": "Distribution of MICs: number of isolates with MIC 0.125 μg/mL", "setting": "[1]; of 55 isolates tested", "value": 6},
      {"measurement": "Distribution of MICs: number of isolates with MIC 0.25 μg/mL", "setting": "[1]; of 55 isolates tested", "value": 15},
      {"measurement": "Distribution of MICs: number of isolates with MIC 0.5 μg/mL", "setting": "[1]; of 55 isolates tested", "value": 27},
      {"measurement": "Distribution of MICs: number of isolates with MIC 1 μg/mL", "setting": "[1]; of 55 isolates tested", "value": 5},
      {"measurement": "Detection in tissue samples from lungs", "setting": "[2]", "value": "substantial amounts"}
    ]}
  ]
}
